Three compounds from patent US20240240136A1, “SELECTIVE LYSIS OF MAMMALIAN EUKARYOTIC CELLS AND VISUALIZATION OF VIABLE BACTERIAL CELLS” (priority 2021, published 2024) can be followed below.

One data set concerns E. coli ATCC 25922. As to the kind of experiment: Antibiotic susceptibility testing with lysis buffer sample preparation and PB detection. It counts as cell-based. Particulars: for MIC: E. coli ATCC 25922 spiked in blood and MH media, 16 hr of incubation; for growth of bacteria (OD value) with increase in antibiotic concentration: ampicillin 2 mg/L to 16 mg/L, gentamicin 0.5 mg/L to 8 mg/L, after 16 hr of incubation. The text has this:
FIGS. 7 and 8 show antibiotic susceptibility testing. The lysis buffer based sample preparation method combined with detection using PB formation was used to perform antibiotic susceptibility testing (recommended by EUCAST [15]) using different concentration of ampicillin and gentamicin in separate experiments, on E. coli ATCC 25922 bacteria strain (10^6 CFU/mL) spiked in blood (sample) and in MH media (positive control). ‘MH+Lysis buffer’ is used as negative control (NC). […] The corresponding decrease in PB colour formation on the filter paper with increase in ampicillin and gentamicin concentration is shown on top of each bar in the graphs of the FIG. 7 and FIG. 8, respectively. The MIC of ampicillin and gentamicin was determined to be 16 and 8 mg/L respectively, which was in agreement with the MIC range provided by EUCAST for E. coli ATCC 25922.

Converted amounts (≈) assume the structure as drawn. Where a name gives a salt, the structure may show the parent alone. Read-outs that look alike come from different tables or passages of the source.

As usually defined, the MIC is the smallest concentration in the dilution series that meets the test's criterion for growth inhibition. As for gentamicin, in the data set on E. coli ATCC 25922, the MIC worked out at 8 µg/mL and the “growth of bacteria (OD value) with increase in antibiotic concentration” value is “growth of bacteria decreased”. Take `O=C(O)CC(O)(CC(=O)O)C(=O)O` [Citrate, ferric ammonium citrate]: the toxicity to bacteria entry with bacteria was “not toxic”. With `CC1(C)S[C@@H]2[C@H](NC(=O)[C@H](N)c3ccccc3)C(=O)N2[C@H]1C(=O)O` [ampicillin], the MIC with E. coli ATCC 25922 (Escherichia coli, ATCC25922, read-out: MIC) turned out to be 16 µg/mL (≈ 45.8 µM). The “growth of bacteria (OD value) with increase in antibiotic concentration” value in the data set with E. coli ATCC 25922 is “growth of bacteria decreased”.
